These results are taken from patent publication US20070166710A1, “Methods for inhibiting adipogenesis and for treating type 2 diabetes” (priority 2003, published 2007).

Data set [1] has as its system endogenous Foxa-2 activity in HepG2 cells. The experiment in a line: Endogenous Foxa-2 activity in HepG2 cells transfected with reporter construct alone. It counts as cell-based. Here is the method:
Transfections and Transactivation assay. HepG2 cells were grown to 60-70% confluence in a 24-well dish and transfected with 50 ng of each reporter gene (p6xCdx-TkLuc or pPEPCK-Luc), pCMV-β-Gal as internal reference and the expression vectors for wildtype or mutant Foxa-1 and Foxa-2 and human Akt1/Akt2 using the transfection reagent Fugene6 (Roche). Cells were grown for 48 hours and luciferase activity was measured using the Luciferase Detection System (Promega). Luciferase was normalized for transfection efficiency by β-galactosidase activity. […] To determine whether insulin decreases endogenous Foxa-2 activity in HepG2 cells, cells were transfected with the reporter construct alone and Foxa-2 activity was measured after stimulation with insulin and PI3-kinase or MAPKK1 inhibitors. […] This decrease in activity was ablated when cells were coincubated with Ly294002 but not with PD98059 (FIG. 10b).

Another data set concerns Foxa-2. Kind of data set: Intracellular localization of Foxa-2 in hepatocytes after insulin injection into the portal vein. Format: in vivo, mice. Here is the method: Cryosections of livers ([…]) were fixed for 15 min at RT with 4% paraformaldehyde. For immunofluorescent detection of Foxa-2 or HA-Foxa-2, fixed sections were incubated with either anti-Foxa-2 antibody (1:100) or anti-HA antibody (Convance) (1:1000) overnight at 4° C. After washing, sections were treated with secondary antibody linked to Alexa Fluor 488 (Molecular Probes). For nuclear counterstaining, TOPRO-3 dye (Molecular Probes) was used. Immunofluorescent staining was visualized using laser-scanning micrsocopy.
The role of Foxa-2 in the regulation of liver gene expression by nutritional status was examined by determining the intracellular localization of Foxa-2 in fasted and fed mice by Western blotting of Foxa-2 in liver nuclear extracts and by immunohistochemistry. In fed mice, nuclear Foxa-2 levels were low, whereas after an overnight fast Foxa-2 expression in liver nuclei increased ^˜4 to 5-fold (FIG. 15a). […] Strong Foxa-2 immunostaining was detected in hepatocyte nuclei of control (PBS) mice. […] Foxa-2 protein levels were measured in liver nuclei of C57/B6 mice that were perfused with a buffer containing a range of insulin concentrations that included fasting and postprandial insulin levels (0.2 and 4.0 ng/ml, respectively). […] Foxa-2 levels were determined by immunoblotting. […]

With “insulin: Insulin was from Sigma; hormone used as stimulus”, the “decrease of Foxa-2 activity” value in data set [1] (500 nM insulin) was 80%. In data set [1] (insulin stimulation), the “Foxa-2 activity, dose dependence” value is reported as “dose-dependent decrease”. The “nuclei from which Foxa-2 was excluded” value with Foxa-2 (20 ng/ml insulin into the portal vein of fasted mice, after 5 minutes) was around 80%. For the same substance, in the data set on Foxa-2 (15 minutes after insulin administration), the “localization of Foxa-2 in hepatocytes” value is given as “located exclusively in the cytoplasm of all hepatocytes”.
